One data set has as its target T1, VldE (Streptomyces hygroscopicus, UniProt Q15JG1).
T1 construct: (His)6-tagged full-length protein, 497 residues per monomer, expressed in E. coli BL21(DE3) pLysS; homodimer; residues 1, 2 and 482-497 not modelled
T1 sequence (Q15JG1 1-497): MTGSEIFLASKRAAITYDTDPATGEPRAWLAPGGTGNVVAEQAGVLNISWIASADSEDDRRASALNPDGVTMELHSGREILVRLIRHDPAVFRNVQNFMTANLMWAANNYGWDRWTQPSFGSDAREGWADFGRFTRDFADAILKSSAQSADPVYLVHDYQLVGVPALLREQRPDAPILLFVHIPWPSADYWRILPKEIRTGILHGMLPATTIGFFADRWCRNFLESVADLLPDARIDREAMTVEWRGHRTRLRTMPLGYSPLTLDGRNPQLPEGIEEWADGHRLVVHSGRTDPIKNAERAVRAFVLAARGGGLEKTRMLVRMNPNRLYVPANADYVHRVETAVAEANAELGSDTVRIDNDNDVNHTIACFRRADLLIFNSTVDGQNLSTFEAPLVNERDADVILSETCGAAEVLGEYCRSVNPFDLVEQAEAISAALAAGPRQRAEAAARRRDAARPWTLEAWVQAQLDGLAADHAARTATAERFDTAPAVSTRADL
Put plainly: X-ray crystal structure. The settings on record: ternary complex with GDP, pH 8.0, open conformation. The format is binding.

Data set [1] deals with the molecule itself. The experiment in a line: crystal structure; sitting drop vapor diffusion, 293 K, Tris-HCl pH 8.0 with polyethylene glycol 3,350; two monomers modeled within the asymmetric unit (apo, GDP, GDP+VDO), six monomers in VldE•GDP•TRE.

On to `O=P(O)(O)OC[C@H]1C[C@H](N[C@H]2C=C(CO)[C@@H](O)[C@H](O)[C@H]2O)[C@H](O)[C@@H](O)[C@@H]1O` [VDO, validoxylamine A 7′-phosphate], for which, at VldE (2.11 Å, crystal soaked with 5 mM GDP and 10 mM VDO, cyclitol (donor and acceptor) sites), the X-ray crystal structure entry is “The first crystallographic structure of VldE in complex with the entirety of its products”.
For the molecule `OC[C@H]1O[C@H](O[C@H]2O[C@H](CO)[C@@H](O)[C@H](O)[C@H]2O)[C@H](O)[C@@H](O)[C@@H]1O` [TRE, trehalose], at VldE (2.81 Å, 3% trehalose, 1 mM GDP, 20 mM MgCl2, cyclitol binding sites, bound in two of six monomers), the X-ray crystal structure entry was “structure of VldE in complex with both GDP and trehalose (VldE•GDP•TRE)”.

B1: VldE from S. hygroscopicus subsp. limoneus (enzyme)
chain: MTGSEIFLASKRAAITYDTDPATGEPRAWLAPGGTGNVVAEQAGVLNISWIASADSEDDRRASALNPDGVTMELHSGREILVRLIRHDPAVFRNVQNFMTANLMWAANNYGWDRWTQPSFGSDAREGWADFGRFTRDFADAILKSSAQSADPVYLVHDYQLVGVPALLREQRPDAPILLFVHIPWPSADYWRILPKEIRTGILHGMLPATTIGFFADRWCRNFLESVADLLPDARIDREAMTVEWRGHRTRLRTMPLGYSPLTLDGRNPQLPEGIEEWADGHRLVVHSGRTDPIKNAERAVRAFVLAARGGGLEKTRMLVRMNPNRLYVPANADYVHRVETAVAEANAELGSDTVRIDNDNDVNHTIACFRRADLLIFNSTVDGQNLSTFEAPLVNERDADVILSETCGAAEVLGEYCRSVNPFDLVEQAEAISAALAAGPRQRAEAAARRRDAARPWTLEAWVQAQLDGLAADHAARTATAERFDTAPAVSTRADL
notes: VldE, pseudo-glycosyltransferase of Streptomyces hygroscopicus subsp. limoneus; 994 possible residues for two monomers (497 each); the apo model lacks residues 1, 2 and 482-497; also called pseudo-glycosyltransferase VldE; (His)6-tagged VldE
As to B1, in data set [1], the binding result is on record as “binds”.

These data come from publication PMC3441724, “Mechanistic Insights into Validoxylamine A 7'-Phosphate Synthesis by VldE Using the Structure of the Entire Product Complex” (PLoS ONE, 2012).
